Source: the NIST ThermoML archive (doi:10.1016/j.jct.2008.01.018)
± gives the expanded uncertainty stated by the source.

Experiment: refractive index (Na D-line) (dimensionless); mn = molality of the nth substance listed, in mol/kg
Details: 298.15 K, 101 kPa, Liquid, Standard Abbe refractometry

O=P([O-])(O)O.[Na+] [sodium dihydrogen phosphate] + O
Details | refractive index
m1 = 0.0207 | 1.3331 ± 0.0027
m1 = 0.0415 | 1.3334 ± 0.0027
m1 = 0.0697 | 1.3338 ± 0.0027
m1 = 0.1051 | 1.3342 ± 0.0027
m1 = 0.1397 | 1.3351 ± 0.0027
m1 = 0.1901 | 1.3357 ± 0.0027
m1 = 0.2357 | 1.3363 ± 0.0027
m1 = 0.2947 | 1.3373 ± 0.0027
m1 = 0.3516 | 1.3382 ± 0.0027
m1 = 0.433 | 1.3393 ± 0.0027
m1 = 0.5113 | 1.3405 ± 0.0027
m1 = 0.5842 | 1.3416 ± 0.0027
m1 = 0.653 | 1.3425 ± 0.0027
m1 = 0.6999 | 1.3432 ± 0.0027
m1 = 0.7919 | 1.3442 ± 0.0027
m1 = 0.9206 | 1.3459 ± 0.0027
m1 = 1.175 | 1.3491 ± 0.0027
m1 = 1.18 | 1.3491 ± 0.0027
m1 = 1.447 | 1.3524 ± 0.0027
m1 = 1.794 | 1.3565 ± 0.0027
m1 = 2.079 | 1.3597 ± 0.0027
m1 = 2.396 | 1.3629 ± 0.0027
m1 = 2.398 | 1.3627 ± 0.0027
